Measured values taken from patent US20250179066A1, “ZWITTERIONIC ANTIBACTERIAL COMPOUNDS” (Hoffmann-La Roche Inc., priority 2022, published 2025).
Counter-ions that a name gives are not always drawn.

System: Acinetobacter baumannii ATCC17961
Assay: Antimicrobial susceptibility testing: 90% growth inhibitory concentration (IC90) determination
Format: cell-based
Details: Acinetobacter baumannii, ATCC17961, 16 h, 90% growth inhibitory concentration against Acinetobacter baumannii ATCC17961, Iso-Sensitest broth, OD 600 nm over 16 h; read-out: ATCC 17961 IC90
Method in brief: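 OD600 monitored each minute over 16 h at 35±2° C for bacteria (~5×10^5 CFU/mL final) in Iso-Sensitest medium with 10-point twofold compound series (e.g. 10-0.0195 μM final). Concentration giving 90% growth inhibition in log phase reported as IC90.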

Row | Structure (SMILES) | IC90 [nM]
1 | COCCNc1ccc(-n2cc(-c3cnc(C(=O)Nc4ccc(C(=O)N5CCN(C(=O)[C@H]6CC[N@+](CC(=O)O)(CC7CNC7)CC6)CC5)c(Cl)c4)n3C)c(C(F)(F)F)n2)c(F)c1 [Example 185, cis-2-[1-(azetidin-3-ylmethyl)-4-[4-[2-chloro-4-[[5-[1-[2-fluoro-4-(2-methoxyethylamino)phenyl]-3-(trifluoromethyl)pyrazol-4-yl]-1-methyl-imidazole-2-carbonyl]amino]benzoyl]piperazine-1-carbonyl]piperidin-1-ium-1-yl]acetic acid. 1:1 2,2,2-trifluoroacetate] | 196
2 | Cn1c(-c2cn(-c3ccc(NCCCN)cc3F)nc2C(F)(F)F)cnc1C(=O)Nc1ccc(C(=O)N2CCN(C(=O)[C@H]3CC[N@+](CC(=O)O)(CC4CNC4)CC3)CC2)c(Cl)c1 [Example 186, cis-2-[4-[4-[4-[[5-[1-[4-(3-aminopropylamino)-2-fluoro-phenyl]-3-(trifluoromethyl)pyrazol-4-yl]-1-methyl-imidazole-2-carbonyl]amino]-2-chloro-benzoyl]piperazine-1-carbonyl]-1-(azetidin-3-ylmethyl)piperidin-1-ium-1-yl]acetic Acid.1:1 formate] | 160
3 | CN(C)CC[N@+]1(CC(=O)O)CC[C@H](C(=O)N2CCN(C(=O)c3ccc(NC(=O)c4ncc(-c5cn(-c6ccc(N)cc6F)nc5C(F)(F)F)n4C)cc3Cl)CC2)CC1 [Example 187, trans-2-[4-[4-[4-[[5-[1-(4-amino-2-fluoro-phenyl)-3-(trifluoromethyl)pyrazol-4-yl]-1-methyl-imidazole-2-carbonyl]amino]-2-chloro-benzoyl]piperazine-1-carbonyl]-1-[2-(dimethylamino)ethyl]piperidin-1-ium-1-yl]acetic acid;2,2,2-trifluoroacetate] | 745
4 | CN(C)CC[N@+]1(CC(=O)O)CC[C@@H](C(=O)N2CCN(C(=O)c3ccc(NC(=O)c4ncc(-c5cn(-c6ccc(N)cc6F)nc5C(F)(F)F)n4C)cc3Cl)CC2)CC1 [Example 188, cis-2-[4-[4-[4-[[5-[1-(4-amino-2-fluoro-phenyl)-3-(trifluoromethyl)pyrazol-4-yl]-1-methyl-imidazole-2-carbonyl]amino]-2-chloro-benzoyl]piperazine-1-carbonyl]-1-[2-(dimethylamino)ethyl]piperidin-1-ium-1-yl]acetic acid;2,2,2-trifluoroacetate] | 540
5 | Cn1c(-c2cn(-c3cc4[nH]c(CN)cc4cn3)nc2C(F)(F)F)cnc1C(=O)Nc1ccc(C(=O)N2CCN(C(=O)[C@H]3CC[N@+](CC(=O)O)(CC4CNC4)CC3)CC2)c(Cl)c1 [Example 189, cis-2-[4-[4-[4-[[5-[1-[2-(aminomethyl)-1H-pyrrolo[3,2-c]pyridin-6-yl]-3-(trifluoromethyl)pyrazol-4-yl]-1-methyl-imidazole-2-carbonyl]amino]-2-chloro-benzoyl]piperazine-1-carbonyl]-1-(azetidin-3-ylmethyl)piperidin-1-ium-1-yl]acetic acid;formic acid;formate] | 53.2
6 | Cn1c(-c2cn(-c3ccc4c(ccn4CCN)n3)nc2C(F)(F)F)cnc1C(=O)Nc1ccc(C(=O)N2CCN(C(=O)[C@H]3CC[N@+](CC(=O)O)(CC4CNC4)CC3)CC2)c(Cl)c1 [Example 190, cis-2-[4-[4-[4-[[5-[1-[1-(2-aminoethyl)pyrrolo[3,2-b]pyridin-5-yl]-3-(trifluoromethyl)pyrazol-4-yl]-1-methyl-imidazole-2-carbonyl]amino]-2-chloro-benzoyl]piperazine-1-carbonyl]-1-(azetidin-3-ylmethyl)piperidin-1-ium-1-yl]acetic acid. 1:1 hydrogen chloride. 1:1 chloride] | 199

Further lines, results first:

Row | IC90 [nM] | Structure (SMILES)
7 | 315 | Cn1c(-c2cn(-c3cc4cc(CO)[nH]c4cn3)nc2C(F)(F)F)cnc1C(=O)Nc1ccc(C(=O)N2CCN(C(=O)[C@H]3CC[N@+](CC(=O)O)(CC4CNC4)CC3)CC2)c(Cl)c1 [Example 191, cis-2-[1-(azetidin-3-ylmethyl)-4-[4-[2-chloro-4-[[1-methyl-5-[1-(2-methylol-1H-pyrrolo[2,3-c]pyridin-5-yl)-3-(trifluoromethyl)pyrazol-4-yl]imidazole-2-carbonyl]amino]benzoyl]piperazine-1-carbonyl]piperidin-1-ium-1-yl]acetic acid. 1:1 2,2,2-trifluoroacetic acid]
8 | 265 | Cn1c(-c2cn(-c3cccc(N)n3)nc2C(F)(F)F)cnc1C(=O)Nc1ccc(C(=O)N2CCN(C(=O)[C@H]3CC[N@+](CC(=O)O)(CC4CNC4)CC3)CC2)c(Cl)c1 [Example 192, cis-2-[4-[4-[4-[[5-[1-(6-amino-2-pyridyl)-3-(trifluoromethyl)pyrazol-4-yl]-1-methyl-imidazole-2-carbonyl]amino]-2-chloro-benzoyl]piperazine-1-carbonyl]-1-(azetidin-3-ylmethyl)piperidin-1-ium-1-yl]acetic acid. 1:1 2,2,2-trifluoroacetate]
9 | 371 | Cn1c(-c2cn(-c3ccc(N)cc3F)nc2C(F)(F)F)cnc1C(=O)Nc1ccc(C(=O)N2CCN(C(=O)C3CC[N+](C)(CC(=O)O)CC3)CC2)c(Cl)c1 (stereo not drawn) [Example 193, 2-[4-[4-[4-[[5-[1-(4-amino-2-fluoro-phenyl)-3-(trifluoromethyl)pyrazol-4-yl]-1-methyl-imidazole-2-carbonyl]amino]-2-chloro-benzoyl]piperazine-1-carbonyl]-1-methyl-piperidin-1-ium-1-yl]acetic acid;iodide]
10 | 168 | Cn1c(-c2cn(-c3cc4[nH]cc(CCO)c4cn3)nc2C(F)(F)F)cnc1C(=O)Nc1ccc(C(=O)N2CCN(C(=O)[C@H]3CC[N@+](CC(=O)O)(CC4CNC4)CC3)CC2)c(Cl)c1 [Example 194, cis-2-[1-(azetidin-3-ylmethyl)-4-[4-[2-chloro-4-[[5-[1-[3-(2-hydroxyethyl)-1H-pyrrolo[3,2-c]pyridin-6-yl]-3-(trifluoromethyl)pyrazol-4-yl]-1-methyl-imidazole-2-carbonyl]amino]benzoyl]piperazine-1-carbonyl]piperidin-1-ium-1-yl]acetic acid. 1:1 2,2,2-trifluoroacetate]
11 | 330 | Cn1c(-c2cn(-c3ccc(N)cc3F)nc2C(F)(F)F)cnc1C(=O)Nc1ccc(C(=O)N2CCN(C(=O)CCC[N+](C)(CC(=O)[O-])CC3CNC3)CC2)c(Cl)c1 (stereo not drawn) [Example 195, 2-[[4-[4-[4-[[5-[1-(4-amino-2-fluoro-phenyl)-3-(trifluoromethyl)pyrazol-4-yl]-1-methyl-imidazole-2-carbonyl]amino]-2-chloro-benzoyl]piperazin-1-yl]-4-oxo-butyl]-(azetidin-3-ylmethyl)-methyl-ammonio]acetate]
12 | 185 | Cn1c(-c2cn(-c3ccc(N(CCN)CCN)cn3)nc2C(F)(F)F)cnc1C(=O)Nc1ccc(C(=O)N2CCN(C(=O)[C@H]3CC[N@+](CC(=O)O)(CC4CNC4)CC3)CC2)c(Cl)c1 [Example 196, cis-2-[1-(azetidin-3-ylmethyl)-4-[4-[4-[[5-[1-[5-[bis(2-aminoethyl)amino]-2-pyridyl]-3-(trifluoromethyl)pyrazol-4-yl]-1-methyl-imidazole-2-carbonyl]amino]-2-chloro-benzoyl]piperazine-1-carbonyl]piperidin-1-ium-1-yl]acetic acid;formic acid;formate]
